In patent US11103588B2, “Methods and compositions relating to carnitine-derived materials” (Wayne State University, priority 2017, dated 2021):
Where a name gives a salt, the structure may show the parent alone. Read-outs that look alike come from different tables or passages of the source.

Settings: for Solubility in ACN / Solubility in CHCl3 / Solubility in EA: 80 mg/ml
Description: It is critical to select the right solvent for the one-step reaction to obtain L-carnitineMA monomer. Acryloyl chloride has to be dissolved in a non-protic solvent to preserve its reactivity.

Structure (SMILES)	Solubility in ACN (40° C.)	Solubility in ACN (80° C.)	Solubility in CHCl3 (CHCl3, 40° C.)	Solubility in CHCl3 (CHCl3, 80° C.)	Solubility in EA (40° C.)	Solubility in EA (80° C.)	Solubility in DMF (in words) (80° C.)
C[N+](C)(C)C[C@H](O)CC(=O)[O-].Cl [L-carnitine hydrochloride]	No (No: not soluble)	No (No: not soluble)	No (No: not soluble)	No (No: not soluble)	No (No: not soluble)	No (No: not soluble)	partially dissolved
C[N+](C)(C)C[C@H](O)CC(=O)[O-] [L-carnitine inner-salt]	No (No: not soluble)	No (No: not soluble)	No (No: not soluble)	No (No: not soluble)	No (No: not soluble)	No (No: not soluble)	totally insoluble
